Test: In vitro anti-inflammatory activity assessed as inhibition of heat-induced albumin denaturtion incubated for 15 min followed by heating measured after 10 min
Format: functional

Row | IC50 | SMILES
1 | 190.42 ppm | CC1=C(C(=O)Nc2ccccc2)C(c2ccc(Cl)cc2)n2c(s/c(=C\c3ccc([N+](=O)[O-])cc3)c2=O)=N1 (configuration not stated)
2 | 194.611 ppm | CC1=C(C(=O)Nc2ccccc2)C(c2ccc([N+](=O)[O-])cc2)n2c(s/c(=C\c3ccc(Cl)cc3)c2=O)=N1 (configuration not stated)
3 | 196.05 ppm | CC1=C(C(=O)Nc2ccccc2)C(c2ccc([N+](=O)[O-])cc2)n2c(o/c(=C\c3ccc(Cl)cc3)c2=O)=N1 (configuration not stated)
4 | 192.486 ppm | CC1=C(C(=O)Nc2ccccc2)C(c2ccc(Cl)cc2)n2c(o/c(=C\c3ccc([N+](=O)[O-])cc3)c2=O)=N1 (configuration not stated)
5 | 232.597 ppm | COc1ccc(/C=c2\sc3n(c2=O)C(c2ccc(Cl)cc2)C(C(=O)Nc2ccccc2)=C(C)N=3)cc1 (configuration not stated)
6 | 226.318 ppm | CC1=C(C(=O)Nc2ccccc2)C(c2ccccc2)n2c(s/c(=C\c3ccc(Cl)cc3)c2=O)=N1 (configuration not stated)
7 | 188.24 ppm | O=C([O-])Cc1ccccc1Nc1c(Cl)cccc1Cl.[Na+] [DICLOFENAC SODIUM]
8 | 253.376 ppm | CC1=C(C(=O)Nc2ccccc2)C(c2ccccc2)n2c(s/c(=C\c3ccc([N+](=O)[O-])cc3)c2=O)=N1 (configuration not stated)

Continued, molecule first:

Row | SMILES | IC50
9 | CC1=C(C(=O)Nc2ccccc2)C(c2ccccc2)n2c(o/c(=C\c3ccc([N+](=O)[O-])cc3)c2=O)=N1 (configuration not stated) | 283.525 ppm
10 | COc1ccc(/C=c2\sc3n(c2=O)C(c2ccccc2)C(C(=O)Nc2ccccc2)=C(C)N=3)cc1 (configuration not stated) | 291.257 ppm
11 | COc1ccc(/C=c2\oc3n(c2=O)C(c2ccc(Cl)cc2)C(C(=O)Nc2ccccc2)=C(C)N=3)cc1 (configuration not stated) | 242.144 ppm
12 | CC1=C(C(=O)Nc2ccccc2)C(c2ccc(Cl)cc2)n2c(o/c(=C\c3ccc(N(C)C)cc3)c2=O)=N1 (configuration not stated) | 319.524 ppm
13 | CC1=C(C(=O)Nc2ccccc2)C(c2ccccc2)n2c(s/c(=C\c3ccc(N(C)C)cc3)c2=O)=N1 (configuration not stated) | 316.686 ppm
14 | COc1ccc(C2C(C(=O)Nc3ccccc3)=C(C)N=c3s/c(=C\c4ccc([N+](=O)[O-])cc4)c(=O)n32)cc1 (configuration not stated) | 254.99 ppm
15 | CC1=C(C(=O)Nc2ccccc2)C(c2ccccc2)n2c(o/c(=C\c3ccc(Cl)cc3)c2=O)=N1 (configuration not stated) | 261.464 ppm
16 | CC1=C(C(=O)Nc2ccccc2)C(c2ccc([N+](=O)[O-])cc2)n2c(o/c(=C\c3ccc(N(C)C)cc3)c2=O)=N1 (configuration not stated) | 339.35 ppm
17 | COc1ccc(C2C(C(=O)Nc3ccccc3)=C(C)N=c3s/c(=C\c4ccc(Cl)cc4)c(=O)n32)cc1 (configuration not stated) | 210.874 ppm
18 | CC1=C(C(=O)Nc2ccccc2)C(c2ccccc2)n2c(o/c(=C\c3ccc(N(C)C)cc3)c2=O)=N1 (configuration not stated) | 330.312 ppm
19 | COc1ccc(C2C(C(=O)Nc3ccccc3)=C(C)N=c3o/c(=C\c4ccc([N+](=O)[O-])cc4)c(=O)n32)cc1 (configuration not stated) | 272.584 ppm
20 | COc1ccc(C2C(C(=O)Nc3ccccc3)=C(C)N=c3o/c(=C\c4ccc(Cl)cc4)c(=O)n32)cc1 (configuration not stated) | 236.954 ppm
21 | COc1ccc(/C=c2\sc3n(c2=O)C(c2ccc([N+](=O)[O-])cc2)C(C(=O)Nc2ccccc2)=C(C)N=3)cc1 (configuration not stated) | 250.38 ppm
22 | COc1ccc(C2C(C(=O)Nc3ccccc3)=C(C)N=c3o/c(=C\c4ccc(N(C)C)cc4)c(=O)n32)cc1 (configuration not stated) | 314.544 ppm
23 | CC1=C(C(=O)Nc2ccccc2)C(c2ccc([N+](=O)[O-])cc2)n2c(s/c(=C\c3ccc(N(C)C)cc3)c2=O)=N1 (configuration not stated) | 336.75 ppm
24 | CC1=C(C(=O)Nc2ccccc2)C(c2ccc(Cl)cc2)n2c(s/c(=C\c3ccc(N(C)C)cc3)c2=O)=N1 (configuration not stated) | 309.862 ppm
25 | COc1ccc(/C=c2\oc3n(c2=O)C(c2ccccc2)C(C(=O)Nc2ccccc2)=C(C)N=3)cc1 (configuration not stated) | 304.179 ppm
26 | COc1ccc(C2C(C(=O)Nc3ccccc3)=C(C)N=c3s/c(=C\c4ccc(N(C)C)cc4)c(=O)n32)cc1 (configuration not stated) | 301.677 ppm
27 | COc1ccc(/C=c2\oc3n(c2=O)C(c2ccc([N+](=O)[O-])cc2)C(C(=O)Nc2ccccc2)=C(C)N=3)cc1 (configuration not stated) | 259.104 ppm

— ChEMBL document CHEMBL3045975, “In vitro anti-inflammatory potential and QSAR analysis of oxazolo/thiazolo pyrimidine derivatives” (Med Chem Res, 2013)
